# Measured values reported in ChEMBL document CHEMBL1201862, “PubChem BioAssay data set” (2004).
# Activity calls are given as the source filed them.
# Tests used:
# [1] = target: Voltage-gated inwardly rectifying potassium channel KCNH2 (Homo sapiens, UniProt Q12809); settings: Potency;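 also: confirmatory quantitative high-throughput screen measuring inhibition of hERG channel activity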
# Cytochrome P450 3A4 = Cytochrome P450 3A4 (Homo sapiens, UniProt P08684);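 also: CYP3A4 tested as one member of a cytochrome P450 panel screen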
# Sequence of Cytochrome P450 3A4 (P08684 whole entry): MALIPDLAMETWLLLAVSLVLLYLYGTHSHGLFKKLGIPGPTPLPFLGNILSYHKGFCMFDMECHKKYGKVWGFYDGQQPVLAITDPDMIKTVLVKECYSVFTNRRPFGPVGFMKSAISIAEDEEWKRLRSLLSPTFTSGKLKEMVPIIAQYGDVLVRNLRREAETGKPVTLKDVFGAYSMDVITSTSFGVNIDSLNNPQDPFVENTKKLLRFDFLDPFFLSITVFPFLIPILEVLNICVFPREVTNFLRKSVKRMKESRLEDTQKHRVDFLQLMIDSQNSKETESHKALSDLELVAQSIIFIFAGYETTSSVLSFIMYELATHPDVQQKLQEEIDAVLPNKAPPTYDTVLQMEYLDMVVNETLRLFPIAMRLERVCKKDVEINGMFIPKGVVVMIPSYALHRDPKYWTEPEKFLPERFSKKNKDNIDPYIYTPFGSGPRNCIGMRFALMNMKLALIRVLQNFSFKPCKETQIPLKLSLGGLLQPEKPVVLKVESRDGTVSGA
# Cytochrome P450 2D6 = Cytochrome P450 2D6 (Homo sapiens, UniProt P10635);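 also: CYP2D6 member of a cytochrome P450 panel assay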
# Cytochrome P450 1A2 = target: T1, Cytochrome P450 1A2 (Homo sapiens, UniProt P05177);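 also: PubChem cytochrome P450 panel assay, CYP1A2 panel member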
# T1 sequence (P05177 whole entry): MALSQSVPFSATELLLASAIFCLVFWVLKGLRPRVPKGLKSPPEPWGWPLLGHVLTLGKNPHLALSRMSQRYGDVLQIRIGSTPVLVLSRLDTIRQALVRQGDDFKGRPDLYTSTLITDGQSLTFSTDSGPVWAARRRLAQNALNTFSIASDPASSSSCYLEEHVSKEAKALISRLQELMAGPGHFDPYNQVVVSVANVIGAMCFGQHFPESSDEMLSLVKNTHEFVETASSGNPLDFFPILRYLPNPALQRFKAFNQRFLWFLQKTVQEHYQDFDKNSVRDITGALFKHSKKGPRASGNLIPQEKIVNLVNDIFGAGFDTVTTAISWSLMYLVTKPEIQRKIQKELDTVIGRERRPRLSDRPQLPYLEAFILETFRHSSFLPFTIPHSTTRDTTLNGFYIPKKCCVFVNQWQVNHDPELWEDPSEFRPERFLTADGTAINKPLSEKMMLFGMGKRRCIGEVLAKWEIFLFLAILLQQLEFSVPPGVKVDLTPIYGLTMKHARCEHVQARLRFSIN
# [2] = target: T2, Nuclear receptor subfamily 0 group B member 1 (Homo sapiens, UniProt P51843); experiment: Luminescence-based cell-based high throughput dose response assay for inhibitors of the orphan nuclear receptor subfamily 0, group B, member 1 (DAX1; NR0B1). [Related pubchem assays (depositor defined):AID504766, AID504790]; assay type: functional
# T2 sequence (P51843 whole entry): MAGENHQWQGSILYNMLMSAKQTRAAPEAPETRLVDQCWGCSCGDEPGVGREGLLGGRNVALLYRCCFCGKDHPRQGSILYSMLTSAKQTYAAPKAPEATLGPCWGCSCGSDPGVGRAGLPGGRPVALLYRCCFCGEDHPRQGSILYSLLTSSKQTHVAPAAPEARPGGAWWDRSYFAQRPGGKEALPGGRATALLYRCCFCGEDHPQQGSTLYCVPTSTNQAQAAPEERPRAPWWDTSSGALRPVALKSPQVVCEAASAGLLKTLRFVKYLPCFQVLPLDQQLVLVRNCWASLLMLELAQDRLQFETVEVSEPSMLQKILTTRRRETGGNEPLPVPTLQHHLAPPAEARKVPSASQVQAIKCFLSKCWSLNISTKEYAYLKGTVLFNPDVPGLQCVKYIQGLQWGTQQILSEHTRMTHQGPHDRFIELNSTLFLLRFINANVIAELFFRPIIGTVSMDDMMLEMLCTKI
# HEK293 = experiment: cells; assay type: functional, cell-based; settings: Homo sapiens
# HeLa = experiment: ATP-based viability loss in HeLa cells – cell-based, CellTiter-Glo luminescence, cherry-pick samples, cytotoxicity control for MITF activator project, dose response (AID 540259); assay type: functional; settings: Homo sapiens
# [3] = target: T3, Type-1 angiotensin II receptor (Homo sapiens, UniProt P30556); experiment: agonist activity at AGTR1 – cell-based, uHTS hits, selectivity assay for APJ receptor agonist project, dose response (AID 488865); assay type: functional;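 also: beta-arrestin recruitment to AT1 measured by enzyme fragment complementation luminescence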
# T3 sequence (P30556 whole entry): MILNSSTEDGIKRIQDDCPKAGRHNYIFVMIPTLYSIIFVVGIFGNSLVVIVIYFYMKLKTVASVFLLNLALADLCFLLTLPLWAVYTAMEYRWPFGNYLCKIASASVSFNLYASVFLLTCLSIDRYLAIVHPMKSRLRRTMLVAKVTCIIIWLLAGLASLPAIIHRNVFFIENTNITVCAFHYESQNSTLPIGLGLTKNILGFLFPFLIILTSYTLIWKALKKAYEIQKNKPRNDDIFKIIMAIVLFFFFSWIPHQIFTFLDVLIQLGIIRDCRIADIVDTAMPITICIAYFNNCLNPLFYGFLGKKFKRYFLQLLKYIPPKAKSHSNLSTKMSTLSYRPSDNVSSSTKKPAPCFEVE
# Coagulation factor XII = target: T4, Coagulation factor XII (Homo sapiens, UniProt P00748); assay type: functional;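 also: activated factor XIIa alpha cleaving a fluorogenic AMC peptide substrate; inhibitor potency from loss of enzyme activity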
# T4 sequence (P00748 whole entry): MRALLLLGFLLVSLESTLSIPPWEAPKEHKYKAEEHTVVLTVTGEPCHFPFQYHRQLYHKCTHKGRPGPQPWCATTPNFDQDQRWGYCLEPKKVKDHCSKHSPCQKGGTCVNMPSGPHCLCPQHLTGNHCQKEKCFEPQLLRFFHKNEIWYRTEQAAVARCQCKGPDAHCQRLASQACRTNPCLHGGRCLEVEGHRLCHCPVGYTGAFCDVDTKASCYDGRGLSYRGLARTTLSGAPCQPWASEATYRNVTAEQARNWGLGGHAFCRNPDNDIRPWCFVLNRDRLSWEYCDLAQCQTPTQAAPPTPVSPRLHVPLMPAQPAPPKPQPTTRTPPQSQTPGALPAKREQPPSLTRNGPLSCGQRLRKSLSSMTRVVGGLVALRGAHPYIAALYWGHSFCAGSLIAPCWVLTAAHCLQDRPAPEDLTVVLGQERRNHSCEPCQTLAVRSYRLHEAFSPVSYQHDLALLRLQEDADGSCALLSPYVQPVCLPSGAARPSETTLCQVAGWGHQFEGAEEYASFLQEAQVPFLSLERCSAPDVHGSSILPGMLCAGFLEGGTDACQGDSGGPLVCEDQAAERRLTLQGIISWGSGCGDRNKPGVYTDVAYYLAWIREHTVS
# Hexokinase HKDC1 = Hexokinase HKDC1 (Homo sapiens, UniProt Q2TB90); experiment: SAR analysis of small molecule inhibitors of hexokinase domain containing I (HKDC1). [Related pubchem assays (depositor defined):AID493160, AID493190]; assay type: functional
# Sequence of Hexokinase HKDC1 (Q2TB90 whole entry, the tested form may be a part): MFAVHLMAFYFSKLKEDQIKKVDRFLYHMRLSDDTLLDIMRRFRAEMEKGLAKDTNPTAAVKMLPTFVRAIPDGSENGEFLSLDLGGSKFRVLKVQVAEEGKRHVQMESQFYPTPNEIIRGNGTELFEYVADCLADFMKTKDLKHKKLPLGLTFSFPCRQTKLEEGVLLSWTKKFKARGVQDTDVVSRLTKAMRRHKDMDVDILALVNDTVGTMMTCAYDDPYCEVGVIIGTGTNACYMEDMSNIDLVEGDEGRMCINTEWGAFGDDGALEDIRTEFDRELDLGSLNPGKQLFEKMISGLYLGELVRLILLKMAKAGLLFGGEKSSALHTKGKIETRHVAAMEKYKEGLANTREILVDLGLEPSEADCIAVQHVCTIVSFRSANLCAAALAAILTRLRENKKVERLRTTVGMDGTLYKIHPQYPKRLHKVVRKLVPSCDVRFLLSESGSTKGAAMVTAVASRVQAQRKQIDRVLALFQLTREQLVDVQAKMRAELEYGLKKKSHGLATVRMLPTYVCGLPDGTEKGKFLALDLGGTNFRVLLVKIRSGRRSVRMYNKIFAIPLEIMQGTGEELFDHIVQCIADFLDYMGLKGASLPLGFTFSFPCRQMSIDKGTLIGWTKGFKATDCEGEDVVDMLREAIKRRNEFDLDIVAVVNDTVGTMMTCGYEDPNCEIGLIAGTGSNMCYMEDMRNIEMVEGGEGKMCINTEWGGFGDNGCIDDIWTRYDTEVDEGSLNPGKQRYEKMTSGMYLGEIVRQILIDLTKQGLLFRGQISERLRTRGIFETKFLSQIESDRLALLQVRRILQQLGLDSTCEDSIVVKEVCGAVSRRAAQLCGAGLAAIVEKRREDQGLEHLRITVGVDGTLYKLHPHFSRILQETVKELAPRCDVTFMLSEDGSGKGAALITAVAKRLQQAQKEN
# Hexokinase-1 = Hexokinase-1 (Homo sapiens, UniProt P19367); experiment: SAR analysis of small molecule inhibitors of hexokinase domain containing I (HKDC1) in the hexokinase 1 selectivity assay. [Related pubchem assays (depositor defined):AID493160, AID493190]; assay type: functional
# [4] = target: T5, Short transient receptor potential channel 4 (Mus musculus, UniProt Q9QUQ5); experiment: calcium entry via TRPC4 opening agents – cell-based, HEK293 TRPC4/mu-opioid, Fluo-4 calcium, dose response (AID 434937); assay type: functional
# T5 sequence (Q9QUQ5 whole entry): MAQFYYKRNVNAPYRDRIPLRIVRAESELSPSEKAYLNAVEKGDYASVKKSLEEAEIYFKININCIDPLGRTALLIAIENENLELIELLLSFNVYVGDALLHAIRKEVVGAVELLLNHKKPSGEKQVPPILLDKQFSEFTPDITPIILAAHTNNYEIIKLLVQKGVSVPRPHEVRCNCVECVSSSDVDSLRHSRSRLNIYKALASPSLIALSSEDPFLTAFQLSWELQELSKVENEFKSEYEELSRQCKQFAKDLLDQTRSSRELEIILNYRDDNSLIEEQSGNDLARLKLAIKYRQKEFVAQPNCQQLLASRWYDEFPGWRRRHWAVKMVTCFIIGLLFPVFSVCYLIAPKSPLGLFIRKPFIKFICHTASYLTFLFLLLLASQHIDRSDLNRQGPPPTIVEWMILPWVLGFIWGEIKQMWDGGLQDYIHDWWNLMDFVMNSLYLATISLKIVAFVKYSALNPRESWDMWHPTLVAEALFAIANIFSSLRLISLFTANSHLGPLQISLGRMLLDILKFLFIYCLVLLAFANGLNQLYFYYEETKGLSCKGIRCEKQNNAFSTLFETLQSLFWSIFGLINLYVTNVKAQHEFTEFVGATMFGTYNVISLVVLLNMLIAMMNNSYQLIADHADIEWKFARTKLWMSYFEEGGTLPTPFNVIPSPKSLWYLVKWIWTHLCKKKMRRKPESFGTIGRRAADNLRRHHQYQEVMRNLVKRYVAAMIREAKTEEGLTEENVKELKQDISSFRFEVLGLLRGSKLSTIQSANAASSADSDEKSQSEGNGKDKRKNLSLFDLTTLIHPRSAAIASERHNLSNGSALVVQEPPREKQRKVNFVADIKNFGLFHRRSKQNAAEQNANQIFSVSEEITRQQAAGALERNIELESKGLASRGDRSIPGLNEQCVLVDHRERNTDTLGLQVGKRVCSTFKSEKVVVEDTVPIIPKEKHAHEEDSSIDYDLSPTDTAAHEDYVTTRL
# Fatty acid synthase [5] = target: T6, Fatty acid synthase (Homo sapiens, UniProt P49327); experiment: inhibition of human FAS-TE enzyme activity – biochemical, endpoint fluorescence intensity, uHTS hits, dose response (AID 624327); assay type: functional;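 also: fluorescence from hydrolysis of an O-methyl fluorescein acyl ester substrate by the enzyme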
# T6 sequence (P49327 whole entry): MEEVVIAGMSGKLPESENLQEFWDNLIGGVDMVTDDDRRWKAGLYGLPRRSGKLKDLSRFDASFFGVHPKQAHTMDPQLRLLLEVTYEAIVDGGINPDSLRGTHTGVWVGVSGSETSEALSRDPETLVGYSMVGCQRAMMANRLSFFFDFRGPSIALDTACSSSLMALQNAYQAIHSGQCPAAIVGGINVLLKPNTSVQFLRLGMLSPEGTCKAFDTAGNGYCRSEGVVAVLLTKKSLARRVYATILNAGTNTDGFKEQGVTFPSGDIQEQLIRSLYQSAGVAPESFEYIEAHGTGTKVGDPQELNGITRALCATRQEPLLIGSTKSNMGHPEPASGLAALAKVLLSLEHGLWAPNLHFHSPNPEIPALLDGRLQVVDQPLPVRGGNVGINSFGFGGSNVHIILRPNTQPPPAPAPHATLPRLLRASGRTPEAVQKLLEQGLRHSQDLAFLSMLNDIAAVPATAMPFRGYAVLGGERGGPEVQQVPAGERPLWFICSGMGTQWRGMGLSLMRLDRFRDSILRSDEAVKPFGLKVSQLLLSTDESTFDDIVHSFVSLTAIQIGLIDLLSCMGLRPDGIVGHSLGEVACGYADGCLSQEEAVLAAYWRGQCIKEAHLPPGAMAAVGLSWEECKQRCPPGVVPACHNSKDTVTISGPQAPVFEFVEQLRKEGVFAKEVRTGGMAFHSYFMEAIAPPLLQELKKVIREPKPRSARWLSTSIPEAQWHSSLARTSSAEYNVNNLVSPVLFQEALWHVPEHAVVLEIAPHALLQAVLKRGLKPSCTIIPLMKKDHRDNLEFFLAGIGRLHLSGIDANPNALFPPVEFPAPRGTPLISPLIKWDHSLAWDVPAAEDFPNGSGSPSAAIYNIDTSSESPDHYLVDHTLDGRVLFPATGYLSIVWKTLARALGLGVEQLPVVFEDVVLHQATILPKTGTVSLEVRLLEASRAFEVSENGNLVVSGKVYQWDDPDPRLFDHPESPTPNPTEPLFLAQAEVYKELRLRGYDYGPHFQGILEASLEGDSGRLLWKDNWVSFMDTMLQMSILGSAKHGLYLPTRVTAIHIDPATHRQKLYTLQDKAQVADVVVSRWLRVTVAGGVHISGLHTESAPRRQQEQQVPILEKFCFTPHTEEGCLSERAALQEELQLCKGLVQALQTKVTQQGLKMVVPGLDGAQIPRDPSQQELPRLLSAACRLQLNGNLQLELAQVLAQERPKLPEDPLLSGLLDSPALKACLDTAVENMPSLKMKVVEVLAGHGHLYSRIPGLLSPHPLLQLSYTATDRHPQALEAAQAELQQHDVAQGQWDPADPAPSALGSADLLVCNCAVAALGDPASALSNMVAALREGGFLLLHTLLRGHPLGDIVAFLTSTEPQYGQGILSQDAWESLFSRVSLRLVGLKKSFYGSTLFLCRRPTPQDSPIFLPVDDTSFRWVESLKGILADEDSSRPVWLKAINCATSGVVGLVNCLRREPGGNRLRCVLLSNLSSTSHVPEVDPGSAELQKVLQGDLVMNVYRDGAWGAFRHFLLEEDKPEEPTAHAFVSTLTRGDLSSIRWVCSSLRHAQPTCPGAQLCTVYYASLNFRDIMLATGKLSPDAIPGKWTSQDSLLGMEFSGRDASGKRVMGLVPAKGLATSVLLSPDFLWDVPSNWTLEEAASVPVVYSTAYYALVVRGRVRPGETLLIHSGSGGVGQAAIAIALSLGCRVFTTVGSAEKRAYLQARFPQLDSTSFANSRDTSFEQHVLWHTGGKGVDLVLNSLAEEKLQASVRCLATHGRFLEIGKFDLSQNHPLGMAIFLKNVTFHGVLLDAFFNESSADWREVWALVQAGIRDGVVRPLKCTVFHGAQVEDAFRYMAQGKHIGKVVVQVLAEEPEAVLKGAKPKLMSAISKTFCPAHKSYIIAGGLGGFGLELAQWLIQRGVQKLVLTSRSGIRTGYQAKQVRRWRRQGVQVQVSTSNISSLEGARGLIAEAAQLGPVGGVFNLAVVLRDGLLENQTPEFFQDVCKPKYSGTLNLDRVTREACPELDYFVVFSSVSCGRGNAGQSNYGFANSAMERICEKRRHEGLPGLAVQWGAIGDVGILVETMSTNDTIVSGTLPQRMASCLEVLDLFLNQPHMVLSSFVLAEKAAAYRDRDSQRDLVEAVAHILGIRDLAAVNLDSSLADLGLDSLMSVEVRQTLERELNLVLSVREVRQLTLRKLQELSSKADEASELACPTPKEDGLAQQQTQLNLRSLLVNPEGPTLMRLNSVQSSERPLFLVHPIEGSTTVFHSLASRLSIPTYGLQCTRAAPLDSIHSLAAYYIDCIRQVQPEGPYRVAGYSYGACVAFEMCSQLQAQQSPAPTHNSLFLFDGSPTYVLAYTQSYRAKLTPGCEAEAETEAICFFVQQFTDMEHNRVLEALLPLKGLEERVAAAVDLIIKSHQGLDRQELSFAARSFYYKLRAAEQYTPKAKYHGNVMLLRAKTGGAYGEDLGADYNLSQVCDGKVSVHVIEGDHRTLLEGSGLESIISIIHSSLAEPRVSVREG
# Fatty acid synthase [6] = target: T6, Fatty acid synthase; experiment: inhibition of human FAS-TE enzyme activity – biochemical, kinetic fluorescence intensity, dose response (AID 624326); assay type: functional;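 also: rate of fluorescence rise from hydrolysis of a fluorogenic O-methyl fluorescein ester substrate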
# Sequence of Voltage-gated inwardly rectifying potassium channel KCNH2 (Q12809 whole entry): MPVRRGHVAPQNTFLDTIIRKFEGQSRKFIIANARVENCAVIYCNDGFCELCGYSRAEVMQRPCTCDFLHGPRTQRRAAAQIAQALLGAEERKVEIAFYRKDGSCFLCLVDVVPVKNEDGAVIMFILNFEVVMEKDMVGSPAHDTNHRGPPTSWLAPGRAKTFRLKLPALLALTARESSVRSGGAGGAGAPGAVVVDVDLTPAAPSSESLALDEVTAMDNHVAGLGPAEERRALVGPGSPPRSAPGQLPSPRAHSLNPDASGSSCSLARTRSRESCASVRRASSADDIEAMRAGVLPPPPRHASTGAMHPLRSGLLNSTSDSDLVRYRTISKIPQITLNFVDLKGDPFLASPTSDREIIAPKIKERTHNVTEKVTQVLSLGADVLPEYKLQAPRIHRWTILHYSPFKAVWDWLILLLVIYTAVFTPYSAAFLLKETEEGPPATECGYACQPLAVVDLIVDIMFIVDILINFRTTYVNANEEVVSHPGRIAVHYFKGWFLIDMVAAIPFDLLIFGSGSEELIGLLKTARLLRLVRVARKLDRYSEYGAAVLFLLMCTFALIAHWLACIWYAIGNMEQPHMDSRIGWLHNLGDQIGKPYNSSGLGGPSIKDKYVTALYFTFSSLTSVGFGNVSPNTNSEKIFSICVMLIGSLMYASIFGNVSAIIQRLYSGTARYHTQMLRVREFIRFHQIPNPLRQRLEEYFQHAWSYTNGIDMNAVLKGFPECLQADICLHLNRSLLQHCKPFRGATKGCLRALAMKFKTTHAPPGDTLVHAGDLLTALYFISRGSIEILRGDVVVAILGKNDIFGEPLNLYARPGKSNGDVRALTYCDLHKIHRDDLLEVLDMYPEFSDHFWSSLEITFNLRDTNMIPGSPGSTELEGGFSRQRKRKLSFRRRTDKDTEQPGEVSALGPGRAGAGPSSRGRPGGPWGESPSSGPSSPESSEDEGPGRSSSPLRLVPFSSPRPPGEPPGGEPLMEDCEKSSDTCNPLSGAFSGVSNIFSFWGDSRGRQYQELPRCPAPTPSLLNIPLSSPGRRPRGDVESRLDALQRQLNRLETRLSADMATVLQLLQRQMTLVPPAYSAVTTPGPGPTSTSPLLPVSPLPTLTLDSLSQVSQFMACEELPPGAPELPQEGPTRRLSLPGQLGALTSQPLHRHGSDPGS
structure (smiles),measurement,setting,value
COc1cccc(C(=O)NCCN2CCN(c3ccc(Cl)cc3)CC2)c1,AC50,[1],1 µM (inconclusive)
same,AC50,Cytochrome P450 3A4,15.8 µM (inconclusive)
same,AC50,Cytochrome P450 2D6,31.6 µM (inconclusive)
same,AC50,Cytochrome P450 1A2,12.6 µM (inconclusive)
Cc1ccc2nc(N3CCOCC3)c(C=O)cc2c1,IC50,[2],> 67.5 µM (inactive)
same,IC50,HEK293,> 67.5 µM (inactive)
Cc1nc(C(=O)Nc2ccccc2)sc1C(=O)Nc1ccccc1,AC50,HeLa,58.6 µM (active)
CCC(c1nnnn1Cc1ccccc1)N(Cc1cc2cc(OC)ccc2[nH]c1=O)CC1CCCO1 (configuration not stated),EC50,[3],> 100 µM (inactive)
CN1CCN(CCNC(=O)c2cn(Cc3ccccc3F)nn2)CC1,IC50,Coagulation factor XII,> 50 µM (inactive)
Cc1cccc(/C=C\c2nc3ccccc3c(=O)n2Cc2ccccc2)c1,IC50,Hexokinase HKDC1,> 80 µM (inactive)
same,IC50,Hexokinase-1,> 80 µM (inactive)
CC1CCCCN1S(=O)(=O)c1ccc(C(=O)N(CCCN(C)C)c2nc3ccc(Br)cc3s2)cc1 (configuration not stated),EC50,[3],> 100 µM (inactive)
same,EC50,[4],4.73 µM (active)
CN(C)S(=O)(=O)Oc1ccsc1C(=O)Nc1ccc(Cl)c(Cl)c1,IC50,Coagulation factor XII,> 50 µM (inactive)
N#Cc1ccc(CSc2nnc(NC(=O)c3ccco3)s2)cc1,IC50,Hexokinase HKDC1,> 80 µM (inactive)
same,IC50,Hexokinase-1,> 80 µM (inactive)
COc1ccc(S(=O)(=O)N2CCN(C(=O)c3ccc(O)nn3)CC2)cc1OC,IC50,[2],> 67.5 µM (inactive)
same,IC50,HEK293,> 67.5 µM (inactive)
C[C@]12CC[C@@H](O)CC1CC[C@@H]1[C@@H]2CC[C@]2(C)C(=O)CC[C@@H]12 (some centres not stated),AC50,[1],25.1 µM (inconclusive)
O=S(=O)(c1ccccc1)n1ccc(-c2cnc(-c3ccccc3)s2)n1,AC50,HeLa,101 µM (active)
same,IC50,Fatty acid synthase [5],7.41 µM (active)
same,IC50,Fatty acid synthase [6],6.85 µM (active)
